Measurements taken from ChEMBL document CHEMBL5042524, “Discovery of Novel Histone Deacetylase 6 (HDAC6) Inhibitors with Enhanced Antitumor Immunity of Anti-PD-L1 Immunotherapy in Melanoma” (J Med Chem, 2022).
≈ marks a conversion by molar mass, not a printed value. Each block holds one compound with its values, some of them ahead of it. Calls of active or inactive are those of the source. The rule behind the calls is not given here.

How the values were obtained:
[1] = Resistance index, ratio of IC50 for antiproliferative activity against human YCC3/7 cells to IC50 for antiproliferative activity against human YCC-11 cells; assay type: functional
[2] = Inhibition of pig brain tubulin polymerization by spectrophotometric analysis; set-up: species or system Sus scrofa
[3] = Half life in Sprague-Dawley rat at 2 mg/kg, iv measured upto 48 hrs by LC-MS/MS analysis; assay type: ADME, organism-based; conditions: in vivo
Jurkat [4] = assay: Induction of apoptosis in human Jurkat T cells assessed as increase in Bax protein expression at 0.2 to 2 uM measured after 6 hrs by Western blot analysis; assay type: functional, cell-based; conditions: dose 0.2-2 µM
Mus musculus [5] = assay: Myelosuppression in C57BL/6 mouse assessed as change in granulocyte count at 50 mg/kg, IG administered once daily via gavage for 14 days; assay type: toxicity, organism-based; conditions: in vivo, po, 336 h, time 14 day
B16-F10 [6] = assay: Effect on acetyl-SMC3 expression level in mouse B16-F10 cells at 1 to 4 uM incubated for 6 hrs by Western blot analysis; assay type: functional, cell-based; conditions: dose 1-4 µM
[7] = Apparent volume of distribution in Sprague-Dawley rat at 2 mg/kg, iv measured upto 48 hrs by LC-MS/MS analysis; assay type: ADME, organism-based; conditions: in vivo
B16-F10 [8] = assay: Upregulation of acetylated alpha-tubulin expression in mouse B16-F10 cells incubated for 6 hrs by Western blot analysis; assay type: functional, cell-based; conditions: dose 0.1-2 µM
[9] = Apparent volume of distribution in Sprague-Dawley rat at 10 mg/kg, po measured upto 48 hrs by LC-MS/MS analysis; assay type: ADME, organism-based; conditions: in vivo
B16-F10 [10] = assay: Antitumor activity in mouse B16-F10 cells allografted in C57BL/6 mouse assessed as tumor growth inhibition at 50 mg/kg, ip administered for 14 days in presence of 2-(5-chloro-2-(3-cyanobenzyloxy)-4-((2-methylbiphenyl-3-yl)methoxy)benzylamino)-2-methylpropanoic acid by caliper method (Rvb= 63%); assay type: functional; conditions: 336 h, time 14 day, read-out: TGI
B16-F10 [11] = assay: Induction of apoptosis in mouse B16-F10 cells assessed as increase in apoptotic cells at 0.1 uM incubated for 48 hrs by Annexin V-FITC/PI staining based flow cytometry analysis relative to control; assay type: functional
Jurkat [12] = assay: Effect on acetyl-SMC3 expression level in human Jurkat T cells at 0.1 to 0.8 uM incubated for 6 hrs by Western blot analysis; assay type: functional, cell-based; conditions: dose 0.1-0.8 µM
[13] = MRT(0 to t) in Sprague-Dawley rat at 10 mg/kg, po measured upto 48 hrs by LC-MS/MS analysis; assay type: ADME, organism-based; conditions: in vivo
B16-F10 [14] = assay: Induction of apoptosis in mouse B16-F10 cells assessed as increase in apoptotic cells at 1 uM incubated for 48 hrs by Annexin V-FITC/PI staining based flow cytometry analysis relative to control; assay type: functional
[15] = Toxicity in C57BL/6 mouse bearing B16-F10 tumor assessed as morphological changes in heart at 50 mg/kg, ip administered for 14 days by H and E staining based microscopic analysis; assay type: organism-based; conditions: in vivo, 336 h, time 14 day
[16] = Toxicity in C57BL/6 mouse bearing B16-F10 tumor assessed as morphological changes in kidney at 50 mg/kg, ip administered for 14 days by H and E staining based microscopic analysis; assay type: organism-based; conditions: in vivo, 336 h, time 14 day
B16-F10 [17] = assay: cells; assay type: functional, cell-based; conditions: Mus musculus, B16-F10, 48 h
Description: Antiproliferative activity against mouse B16-F10 cells assessed as inhibition of cell proliferation measured after 48 hrs by MTT assay

[18] = AUC(0 to t) in Sprague-Dawley rat at 10 mg/kg, po measured upto 48 hrs by LC-MS/MS analysis; assay type: ADME, organism-based; set-up: route oral, dose 10 mg/kg, time <=48; conditions: in vivo
[19] = Antiproliferative activity against human YCC3/7 cells assessed as cell growth inhibition; assay type: functional, cell-based
B16-F10 [20] = assay: Antitumor activity against mouse B16-F10 cells allografted in C57BL/6 mouse assessed as tumor growth inhibition at 10 mg/kg, ip administered daily for 14 days by caliper method (Rvb= 63%); assay type: functional; conditions: 336 h, time 14 day, read-out: TGI
B16-F10 [21] = assay: Antitumour activity against mouse B16-F10 cells allografted in C57BL/6 mouse model assessed as increase in CD3 positive/CD4 positive cells in tumor at 50 mg/kg, ip administered for 14 days by flow cytometry analysis (Rvb= 8.73%); assay type: functional; conditions: time 14 day
[22] = Toxicity in C57BL/6 mouse bearing B16-F10 tumor assessed as morphological changes in liver at 50 mg/kg, ip administered for 14 days by H and E staining based microscopic analysis; assay type: organism-based; conditions: in vivo, 336 h, time 14 day
[23] = Clearance in Sprague-Dawley rat at 10 mg/kg, po measured upto 48 hrs by LC-MS/MS analysis; assay type: ADME, organism-based; conditions: in vivo
Histone deacetylase 1 = Histone deacetylase 1 (Homo sapiens, UniProt Q13547); assay: Inhibition of recombinant human HDAC1 expressed in baculovirus expression system using Ac-Leu-Gly-Lys (Ac)-AMC as substrate preincubated for 5 mins followed by substrate addition and measured after 30 mins by fluorescence microtiter plate reader assay
B16-F10 [24] = assay: Antitumour activity against mouse B16-F10 cells allografted in C57BL/6 mouse model assessed as decrease in PD-L1 expression level by Western blot analysis relative to control; assay type: functional; set-up: scale not given: the % may be the effect or the level left
[25] = Potency index, ratio of MS-275 IC50 to test compound IC50 for antiproliferative activity against human YCC3/7 cells assessed as cell growth inhibition; assay type: functional
Mus musculus [26] = assay: Myelosuppression in C57BL/6 mouse assessed as change in lymphocyte count at 50 mg/kg, IG administered once daily via gavage for 14 days; assay type: toxicity, organism-based; conditions: in vivo, po, 336 h, time 14 day
B16-F10 [27] = assay: Effect on acetyl-H3 expression level in mouse B16-F10 cells at 1 to 4 uM incubated for 6 hrs by Western blot analysis; assay type: functional, cell-based; conditions: dose 1-4 µM
B16-F10 [28] = assay: Antitumour activity against mouse B16-F10 cells allografted in C57BL/6 mouse model assessed as increase in acetylated alpha tubulin expression level in tumor at 50 mg/kg, ip measured after 14 days by […] based microscopic analysis (Rvb =1.77%); assay type: functional; conditions: time 14 day
[29] = Tmax in Sprague-Dawley rat at 2 mg/kg, iv measured upto 48 hrs by LC-MS/MS analysis; assay type: ADME, organism-based; conditions: in vivo
[30] = Cmax in Sprague-Dawley rat at 10 mg/kg, po measured upto 48 hrs by LC-MS/MS analysis; assay type: ADME, organism-based; set-up: route oral, dose 10 mg/kg, time <=48; conditions: in vivo
[31] = AUC (0 to infinity) in Sprague-Dawley rat at 10 mg/kg, po measured upto 48 hrs by LC-MS/MS analysis; assay type: ADME, organism-based; set-up: route oral, dose 10 mg/kg, time <=48; conditions: in vivo
B16-F10 [32] = assay: Upregulation of alpha-tubulin expression in mouse B16-F10 cells at 0.1 to 2 uM incubated for 6 hrs by Western blot analysis; assay type: functional, cell-based; conditions: dose 0.1-2 µM
[33] = Aqueous solubility of the compound incubated for 24 hrs by HPLC based shake-flask method; assay type: physicochemical; conditions: buffer
[34] = Toxicity in C57BL/6 mouse allografted with B16-F10 cells assessed as body weight loss at 50 mg/kg, ip administered daily for 14 days in combination with 2-(5-chloro-2-(3-cyanobenzyloxy)-4-((2-methylbiphenyl-3-yl)methoxy)benzylamino)-2-methylpropanoic acid; assay type: organism-based; conditions: in vivo, 336 h, time 14 day
[35] = Cmax in Sprague-Dawley rat at 2 mg/kg, iv measured upto 48 hrs by LC-MS/MS analysis; assay type: ADME, organism-based; set-up: route intravenous, dose 2 mg/kg, time <=48; conditions: in vivo
B16-F10 [36] = assay: Induction of cell cycle arrest in mouse B16-F10 cells assessed as decrease in cells at G1 phase at 0.1 to 1 uM incubated for 48 hrs by RNase/PI staining based flow cytometry analysis; assay type: functional; conditions: dose 0.1-1 µM

Chain of Histone deacetylase 1 (Q13547 whole entry): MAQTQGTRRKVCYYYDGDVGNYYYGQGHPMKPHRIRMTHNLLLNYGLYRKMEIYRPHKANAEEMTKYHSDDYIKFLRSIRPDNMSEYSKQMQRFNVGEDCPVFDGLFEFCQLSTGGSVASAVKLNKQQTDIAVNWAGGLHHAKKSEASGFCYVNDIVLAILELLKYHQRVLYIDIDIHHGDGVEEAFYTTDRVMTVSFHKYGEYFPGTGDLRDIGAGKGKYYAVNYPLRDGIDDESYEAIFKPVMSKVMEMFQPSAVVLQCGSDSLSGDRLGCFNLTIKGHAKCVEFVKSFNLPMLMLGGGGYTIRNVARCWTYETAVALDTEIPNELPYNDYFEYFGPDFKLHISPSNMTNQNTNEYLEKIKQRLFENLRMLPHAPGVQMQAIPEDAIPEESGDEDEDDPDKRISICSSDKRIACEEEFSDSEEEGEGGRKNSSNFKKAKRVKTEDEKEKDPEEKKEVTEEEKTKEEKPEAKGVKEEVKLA

IC50 [2]: > 100 µM
half-life [3]: 6.2 h
Vz/F [7]: 76.5 L/kg
Vz/F [9]: 1485.8 L/kg
MRT last at 48 h [13]: 7.4 h
IC50 (B16-F10 [17]): 2.31 µM
AUC(0-t) at 48 h [18]: 134 ng·h/mL
CL [23]: 2402 mL/min/kg
IC50 (Histone deacetylase 1): 3.19 µM
Tmax [29]: 4.98 min
Cmax [30]: 35 ng/mL
AUC [31]: 138.6 ng·h/mL
solubility thermodynamic at 24 h [33]: 41.3 µg/mL (≈ 101 µM)
Cmax [35]: 875 ng/mL
SMILES: COc1ccc(-c2ncc(C(=O)NCCCCCCC(=O)NO)s2)c(OC)c1
Ratio IC50 [1]: 1.2
Activity (Jurkat [4]): Active
Activity (Mus musculus [5]): Non-Toxic
Activity (B16-F10 [6]): Active
Activity (B16-F10 [8]): Dose-Dependent Effect
inhibition in vivo at 50 mg/kg (B16-F10 [10]): 58%
Activity (B16-F10 [11]): 57.09%
Activity (Jurkat [12]): Active
Activity (B16-F10 [14]): 87.91%
Activity [15]: Non-Toxic
Activity [16]: Non-Toxic
IC50 [19]: 1.08 µM
inhibition in vivo at 10 mg/kg (B16-F10 [20]): 69%
Activity (B16-F10 [21]): 8.72%
Activity [22]: Non-Toxic
Activity (B16-F10 [24]): 20%
Ratio IC50 [25]: 6
Activity (Mus musculus [26]): Non-Toxic
Activity (B16-F10 [27]): Active
Activity (B16-F10 [28]): 43.6%
Activity (B16-F10 [32]): inactive
Activity [34]: Non-Toxic

IC50 (B16-F10 [17]): 5.26 µM
IC50 (Histone deacetylase 1): 4.66 µM
SMILES: COc1ccc(-c2ncc(C(=O)NCCCCCCC(=O)NO)[nH]2)c(OC)c1
Activity (Jurkat [4]): Active
Activity (B16-F10 [6]): Active
Activity (B16-F10 [8]): Dose-Dependent Effect
Activity (B16-F10 [11]): 16.58%
Activity (Jurkat [12]): Active
Activity (B16-F10 [14]): 57.73%
IC50 [19]: 1.52 µM
Activity (B16-F10 [36]): Active
Activity (B16-F10 [27]): Active
Activity (B16-F10 [32]): inactive
